From article PMC6706930, “A novel oral micellar fenretinide formulation with enhanced bioavailability and antitumour activity against multiple tumours from cancer stem cells” (Journal of Experimental & Clinical Cancer Research : CR, 2019)
Where “and” joins values, the source holds several entries; their conditions need not be identical. Equal values may be shown once. Read-outs that look alike come from different tables or passages of the source.

Experiment: Tumour pharmacokinetics: fenretinide and metabolite levels in plasma and tumours of xenografted mice
Type: in vivo
Settings: for concentration at 3 h: female, mouse, oral
Method: The determination of fenretinide in plasma of mice and the others biological samples was determined according to a method specifically developed and validated for the quantification of fenretinide (4-HPR) based on liquid chromatography-tandem mass spectrometry (LC–MS/MS) (manuscript in preparation). The procedure of sample preparation and quantification can be summarized as follows. 30 μL aliquot of plasma was added with 3 ng of deuterated internal standard (^2H4 4-HPR), deproteinized by mean of 90 μL of acetonitrile and centrifuged 5 min at 13200 rpm at room temperature. The supernatant was recovered and 5 μL injected into a HPLC system (Series 200, Perkin Elmer, MA, USA). Chromatographic separation was achieved on a Gemini-C18 column (50 mm × 2.0 mm, 5 μm particle size; Phenomenex Inc., Torrance, CA, USA) at 32 °C protected with a Security Guard™ ULTRA cartridges C18. The detection obtained by Mass spectrometric detection was carried out on a triple quadrupole API 4000 mass spectrometer (Sciex, MA, USA) equipped with atmospheric pressure chemical ionization source (APCI) operating in positive ion mode monitoring the transitions 392.3 > 283.2 m/z for 4-HPR and 396.3 > 283.2 m/z for the deuterated internal standard. To assay study samples, a calibration curve of six points (range: 1.0–500.00 ng/mL) was prepared in control mouse plasma assessing the precision and the accuracy of the run analyzing at the same time a set of freshly prepared quality controls samples. The Limit Of Quantification of the method was 1 ng/mL in plasma and urine and 50 ng/g in faeces.
Cell suspensions of lung and colon cancer and melanoma CSC lines were mixed 1:1 with Growth Factor-Reduced Matrigel (Beckton Dickinsons) and injected subcutaneously in both flanks of 5-week-old female NOD-SCID (non-obese diabetic/severe combined immunodeficiency) mice in the case of colon and melanoma or NSG (non-obese diabetic/severe combined immunodeficiency gamma chain deficient) mice in the case of lung (Charles River, Wilmington, MA, USA). For drug treatment, when tumours reached a mean diameter of 0.5 cm, groups of 6 mice were randomized into 3 groups and treated with vehicle, with Bio-nFeR (50,100 or 150 mg/kg as described) freshly dissolved in sterile water or with the standard formulation NCI-FeR that reproduce NCI capsule (50 or 100 mg/Kg). Treatments were administered by oral gavage 5 days on and 2 days off for 3 weeks. Tumours were measured twice a week using a caliper, and mice were monitored for signs of drug-induced toxicity and weighed regularly. At the end of treatments, in a study paralleling the assessment of antitumour activity, tumours and blood samples were collected for pharmacokinetic and molecular studies 3 hours after the last drug administration. Collection of blood, plasma separation and storing were as previously described. Immediately after blood collection mice were sacrificed by cervical dislocation, tumours removed rapidly frozen in liquid nitrogen and stored in small pieces at − 80 °C for subsequent fenretinide determination, protein and lipid analyses. All procedures were performed with the approval of the Ethics Committee for Animal Experimentation.

[1] = colon cancer xenograft mice, Bio-nFeR 150 mg/kg, Suppl. Table 5
[2] = colon cancer xenograft, Bio-nFeR 150 mg/kg, Suppl. Table 5
[3] = lung cancer xenograft mice, Bio-nFeR 100 mg/kg, Suppl. Table 5
[4] = lung cancer xenograft, Bio-nFeR 100 mg/kg, Suppl. Table 5
[5] = melanoma xenograft mice, Bio-nFeR 100 mg/kg, Suppl. Table 5
[6] = melanoma xenograft, Bio-nFeR 100 mg/kg, Suppl. Table 5

CC1=C(/C=C/C(C)=C/C=C/C(C)=C/C(=O)Nc2ccc(O)cc2)C(C)(C)CCC1=O [4-oxo-4-HPR]
Mean concentration (±sd), Plasma [1]: 3519 (1319) ng/ml
Mean concentration (±sd), Tumor [2]: 2514 (189) ng/ml
Mean concentration (±sd), Plasma [3]: 2142 (374) ng/ml
Mean concentration (±sd), Tumor [4]: 2028 (150) ng/ml
Mean concentration (±sd), Plasma [5]: 1226 (220) ng/ml
Mean concentration (±sd), Tumor [6]: 2323(134) ng/ml

COc1ccc(NC(=O)\C=C(C)/C=C/C=C(C)\C=C\C2=C(C)CCCC2(C)C)cc1 [MPR]
Mean concentration (±sd), Plasma [1]: 790 (261) ng/ml
Mean concentration (±sd), Tumor [2]: 1090 (503) ng/ml
Mean concentration (±sd), Plasma [3]: 394 (68) ng/ml
Mean concentration (±sd), Tumor [4]: 2282 (598) ng/ml
Mean concentration (±sd), Plasma [5]: 190 (32) ng/ml
Mean concentration (±sd), Tumor [6]: 707 (476) ng/ml

CC1=C(/C=C/C(C)=C/C=C/C(C)=C/C(=O)Nc2ccc(O)cc2)C(C)(C)CCC1 [4-HPR, 4-hydroxy (phenyl)retinamide, reference compound]
concentration at 3 h (NOD-SCID (colon, melanoma), NSG (lung), tumour, both drug doses analyzed (Bio-nFeR 100 and 150 mg/kg), three xenograft models, read-out: intra-tumour concentration): 1880 ng/g to 2230 ng/g and 4.8 µM to 5.7 µM
concentration at 3 h (NOD-SCID, colon cancer xenograft, Bio-nFeR 150 mg/kg, tumour density assumed =1, read-out: Mean 4-HPR concentration: Tumor): 4.8 µM
concentration at 3 h (NOD-SCID, melanoma xenograft, Bio-nFeR 100 mg/kg, tumour density assumed =1, read-out: Mean 4-HPR concentration: Tumor): 5.4 µM
concentration at 3 h (NOD-SCID, plasma, colon cancer xenograft mice, Bio-nFeR 150 mg/kg, Suppl. Table 5, read-out: Mean concentration (±sd), Plasma): 4990 ng/mL
concentration at 3 h (NOD-SCID, plasma, colon cancer xenograft mice, Bio-nFeR 150 mg/kg, read-out: Mean 4-HPR concentration: Plasma): 12.1 µM
concentration at 3 h (NOD-SCID, plasma, melanoma xenograft mice, Bio-nFeR 100 mg/kg, Suppl. Table 5, read-out: Mean concentration (±sd), Plasma): 1710 ng/mL
concentration at 3 h (NOD-SCID, plasma, melanoma xenograft mice, Bio-nFeR 100 mg/kg, read-out: Mean 4-HPR concentration: Plasma): 4.7 µM
concentration at 3 h (NOD-SCID, tumour, colon cancer xenograft, Bio-nFeR 150 mg/kg, Suppl. Table 5, read-out: Mean concentration (±sd), Tumor): 1880 ng/mL
concentration at 3 h (NOD-SCID, tumour, colon cancer xenograft, Bio-nFeR 150 mg/kg, read-out: Mean 4-HPR concentration ± (sd): Tumor): 1880 ng/g
concentration at 3 h (NOD-SCID, tumour, melanoma xenograft, Bio-nFeR 100 mg/kg, Suppl. Table 5, read-out: Mean concentration (±sd), Tumor): 2130 ng/mL
concentration at 3 h (NOD-SCID, tumour, melanoma xenograft, Bio-nFeR 100 mg/kg, read-out: Mean 4-HPR concentration ± (sd): Tumor): 2130 ng/g
concentration at 3 h (NSG, lung cancer xenograft, Bio-nFeR 100 mg/kg, tumour density assumed =1, read-out: Mean 4-HPR concentration: Tumor): 5.7 µM
concentration at 3 h (NSG, plasma, lung cancer xenograft mice, Bio-nFeR 100 mg/kg, Suppl. Table 5, read-out: Mean concentration (±sd), Plasma): 3450 ng/mL
concentration at 3 h (NSG, plasma, lung cancer xenograft mice, Bio-nFeR 100 mg/kg, read-out: Mean 4-HPR concentration: Plasma): 8.8 µM
concentration at 3 h (NSG, tumour, lung cancer xenograft, Bio-nFeR 100 mg/kg, Suppl. Table 5, read-out: Mean concentration (±sd), Tumor): 2230 ng/mL
concentration at 3 h (NSG, tumour, lung cancer xenograft, Bio-nFeR 100 mg/kg, read-out: Mean 4-HPR concentration ± (sd): Tumor): 2230 ng/g
